Measured values as given in patent US20260115177A1, “MEDICINAL PRODUCTS AND METHODS FOR THE ALLEVIATION OF CANCER IMMUNOTHERA-PY-ASSOCIATED CYTOKINE RELEASE SYNDROME” (POOLBEG PHARMA (UK) LIMITED, priority 2023, published 2026).

How the values were obtained:
Assay type in all cases: cell-based, human
THP-1 monocytes = assay: IL-6 ELISA of THP-1 monocytes treated with sCAR; settings: sCAR stimulation, 24 hours; concentrations of Table 2
Method: In Example 3 below, sCAR (or smCAR) is added using a micropipette to an in vitro culture of monocyte cells of the human monocytic cell line THP-1, available from the American Type Culture Collection. The culture is incubated in a closed incubator at 37° C. with 5% CO2 and a suitably humid atmosphere for approximately 24 hours, following which cytokine release is observed. p38 MAPK activation and cytokine release are confirmed by evaluation of the presence of IL-6 in THP-1 cells using an enzyme-linked immunosorbent assay (ELISA; for which a kit is suitably obtainable from Thermo Fisher Scientific of Kingfisher Dr, Swindon SN3 5BZ, UK).
(i) Monocytes sCAR (or smCAR), produced as described in Example 1 above, is added to a monoculture of THP-1 monocytes in the presence of UR-13870, Ralimetinib or Acumapimod at each of the concentrations shown in Table 2 above at 37° C., 5% CO2 and a suitably humid environment for 24 hours.
Supernatant levels of IL-6 from the THP-1 monocyte monoculture with sCAR (or smCAR) are determined by ELISA.

HUVEC endothelial cells [1] = assay: IL-6 and IL-8 ELISA of HUVEC endothelial cells treated with sCAR; settings: sCAR stimulation, 24 hours; concentrations of Table 2
Method: In like manner and also in Example 3 below, sCAR (or smCAR) is added to endothelial (HUVEC) cells, available from the American Type Culture Collection, and using an equivalent protocol to the treatment of THP-1 cells (but with individually optimised conditions, such as the concentration of sCAR used), following which IL-6 release and IL-8 release are observed. Pro-inflammatory cytokines IL-6 and IL-8 are measured using an enzyme-linked immunosorbent assay (ELISA) and IL-6, ICAM1 and VCAM1 are measured by quantitative PCR (QPCR, for which a kit is suitably obtainable from Thermo Fisher Scientific of Kingfisher Dr, Swindon SN3 5BZ, UK).
sCAR (or smCAR), produced as described in Example 1 above, is added to a monoculture of HUVEC endothelial cells in the presence of UR-13870, Ralimetinib or Acumapimod at each of the concentrations shown in Table 2 above, at 37° C., 5% CO2 and a suitably humid environment for 24 hours.
Supernatant levels of IL-6 and IL-8 from the HUVEC endothelial cell monoculture with sCAR (or smCAR) are determined by ELISA.

HUVEC endothelial cells [2] = assay: QPCR of ICAM1 in HUVEC cells treated with sCART-mono supernatant; settings: 24 hours
Method: With reference to FIG. 13 of the accompanying drawings, a co-culture (100) is established using a standard cell culture transwell dish, including a first compartment (101), containing CAR T cells and cancer cells (at a 1:1 ratio), which is separated from a second compartment (102), containing monocytes, by a semi-permeable membrane (103) composed of tissue-culture treated polyethylene terephthalate with a 0.4 μm pore size.
Each of UR-13870, Acumapimod and Ralimetinib are administered to the co-culture following a procedure analogous to that described in Example 2 above (at the concentrations as shown in Table 2 above).
The co-culture is incubated at 37° C., 5% CO2 and a suitably humid environment for 24 hours. On completion, the transwell insert is removed and supernatant is isolated. Cells and debris are removed from the supernatant by exposing the container to a centripetal force of 400 G and gently pipetting the supernatant into a new container without disturbing the cell pellet at the bottom of the previous container.
Prior to adding the p38 inhibitors and sCART-mono, endothelial cells are incubated overnight at 37° C. and 5% CO2 in a suitably humid environment to allow the cells to adhere fully to the tissue culture dish.
Reduced endothelial cell activation is evidenced by reduced ICAM1 expression in response to treatment with UR-13870, Acumapimod and Ralimetinib.

## OCCCn1cc2c(-c3ccc(F)cc3)c(-c3ccncc3)c(-c3ccc(F)cc3)nc2n1 [UR-13870, 6-bis(4-fluorophenyl)-5-(4-pyridinyl)-2Hpyrazolo[3,4-b]pyridine-2-propanol]
THP-1 monocytes
  IL-6 secretion by THP-1 monocytes: significantly reduce
HUVEC endothelial cells [1]
  IL-6 secretion by HUVEC cells: significantly reduce
  IL-8 supernatant level, HUVEC cells: reduced
HUVEC endothelial cells [2]
  ICAM1 expression (endothelial cell activation): reduced
